Literature values in patent US20250213575A1, “8-HETEROCYCLIC-3-(PHENYLSULFONYL)-[1,2,3]TRIAZOLO[1,5A]QUINAZOLIN-5(4H)-ONE DERIVATIVES AS ANTI-BACTERIALS” (priority 2022, published 2025).

System: AgrA-regulated toxin gene transcription such as hla, psma and pvl
Conditions: across all four agr groups; cited from earlier work

CC(C)c1ccc(S(=O)(=O)c2nnn3c2nc(O)c2ccccc23)cc1 [Savirin]
modulation of AgrA-regulated toxin gene transcription: potent modulator
